The values that follow are results of earlier work, collected in patent US20210361700A1 (priority 2020, published 2021).

The series concerns influenza. To be noted: older mice.

Vitamin E: the “resistance to and pathogenesis of influenza” value is “Increases resistance to and”.
